This is an account of results in ChEMBL document CHEMBL1201862, “PubChem BioAssay data set” (2004).

SMILES strings stand for the structures. Calls of active or inactive are those of the source.

The target of assay [1] is Peroxisome proliferator-activated receptor gamma/Nuclear receptor coactivator 2 (Homo sapiens, UniProt P37231). In words: TR-FRET dose response biochemical High Throughput Screening assay for agonists of the steroid receptor coactivator 2 (SRC-2) recruitment by the peroxisome proliferator-activated receptor gamma (PPAR gamma): non-selective agonists. [Related pubchem assays: 1297, 1032 ]. It counts as functional. A general note: In TR-FRET formats the signal depends on donor and acceptor labels being close together.
Chain of Peroxisome proliferator-activated receptor gamma/Nuclear receptor coactivator 2 (P37231 whole entry): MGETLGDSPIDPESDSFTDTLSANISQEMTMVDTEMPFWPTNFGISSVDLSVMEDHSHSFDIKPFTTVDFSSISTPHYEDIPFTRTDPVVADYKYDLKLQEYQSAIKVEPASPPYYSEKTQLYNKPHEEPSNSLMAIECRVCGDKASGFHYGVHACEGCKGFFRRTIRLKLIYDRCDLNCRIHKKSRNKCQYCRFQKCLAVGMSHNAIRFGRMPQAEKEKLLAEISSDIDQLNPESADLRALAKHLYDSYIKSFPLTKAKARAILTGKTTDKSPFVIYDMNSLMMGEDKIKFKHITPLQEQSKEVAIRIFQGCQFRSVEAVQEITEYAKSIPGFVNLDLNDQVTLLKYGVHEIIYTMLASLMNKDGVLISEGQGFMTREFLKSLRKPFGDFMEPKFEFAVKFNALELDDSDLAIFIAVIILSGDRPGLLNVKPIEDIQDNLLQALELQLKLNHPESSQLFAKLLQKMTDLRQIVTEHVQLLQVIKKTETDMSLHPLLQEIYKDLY
Chain of Peroxisome proliferator-activated receptor gamma/Nuclear receptor coactivator 2 (Q15596 whole entry, further chain): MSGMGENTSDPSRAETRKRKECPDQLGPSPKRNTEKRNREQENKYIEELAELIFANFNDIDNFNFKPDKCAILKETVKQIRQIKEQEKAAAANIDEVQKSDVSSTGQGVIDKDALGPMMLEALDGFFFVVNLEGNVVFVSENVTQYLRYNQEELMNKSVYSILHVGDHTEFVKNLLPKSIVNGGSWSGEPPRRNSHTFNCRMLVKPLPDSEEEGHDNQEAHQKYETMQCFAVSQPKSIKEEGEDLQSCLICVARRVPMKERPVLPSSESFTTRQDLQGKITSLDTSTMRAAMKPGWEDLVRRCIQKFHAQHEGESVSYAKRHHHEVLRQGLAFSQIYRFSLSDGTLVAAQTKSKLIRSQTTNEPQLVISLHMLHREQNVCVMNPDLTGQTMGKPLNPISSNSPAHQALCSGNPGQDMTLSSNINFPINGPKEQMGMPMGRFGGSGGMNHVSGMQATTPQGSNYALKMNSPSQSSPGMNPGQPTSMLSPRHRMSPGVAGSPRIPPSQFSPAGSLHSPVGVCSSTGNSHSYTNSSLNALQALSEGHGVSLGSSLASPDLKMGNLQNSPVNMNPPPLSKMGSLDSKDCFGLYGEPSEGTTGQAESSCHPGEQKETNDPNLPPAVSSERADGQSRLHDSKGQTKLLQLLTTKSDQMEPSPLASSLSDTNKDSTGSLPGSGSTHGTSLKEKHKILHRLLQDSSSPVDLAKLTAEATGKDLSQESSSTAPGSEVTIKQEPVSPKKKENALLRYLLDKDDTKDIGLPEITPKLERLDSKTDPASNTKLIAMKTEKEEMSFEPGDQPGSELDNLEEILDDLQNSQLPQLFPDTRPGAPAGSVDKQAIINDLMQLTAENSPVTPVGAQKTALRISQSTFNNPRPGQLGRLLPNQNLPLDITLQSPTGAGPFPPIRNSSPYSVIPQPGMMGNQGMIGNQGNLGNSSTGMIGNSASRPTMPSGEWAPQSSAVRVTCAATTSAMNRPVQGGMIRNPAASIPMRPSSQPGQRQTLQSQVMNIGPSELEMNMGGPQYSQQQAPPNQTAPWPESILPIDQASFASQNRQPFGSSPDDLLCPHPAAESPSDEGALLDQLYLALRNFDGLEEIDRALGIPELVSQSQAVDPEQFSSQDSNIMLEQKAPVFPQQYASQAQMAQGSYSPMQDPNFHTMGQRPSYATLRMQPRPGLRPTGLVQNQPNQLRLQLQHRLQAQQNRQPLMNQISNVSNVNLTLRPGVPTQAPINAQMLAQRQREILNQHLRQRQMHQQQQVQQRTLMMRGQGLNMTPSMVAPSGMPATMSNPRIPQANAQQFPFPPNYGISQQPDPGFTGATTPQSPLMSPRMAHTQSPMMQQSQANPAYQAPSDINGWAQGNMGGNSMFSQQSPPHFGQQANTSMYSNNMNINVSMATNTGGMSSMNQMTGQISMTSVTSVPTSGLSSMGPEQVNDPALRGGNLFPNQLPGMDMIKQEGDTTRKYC

The target in assay [2] is Peroxisome proliferator-activated receptor gamma/Nuclear receptor coactivator 3 (Homo sapiens, UniProt P37231). The experiment in a line: TR-FRET dose response biochemical High Throughput Screening assay for agonists of the steroid receptor coactivator 3 (SRC-3) recruitment by the peroxisome proliferator-activated receptor gamma (PPAR gamma): non-selective agonists. [Related pubchem assays: 1301 (Confirmation screen.), 1048 (Primary screen.)]. In kind it is functional.
Chain of Peroxisome proliferator-activated receptor gamma/Nuclear receptor coactivator 3 (P37231 whole entry): as the sequence (P37231 whole entry) above
Chain of Peroxisome proliferator-activated receptor gamma/Nuclear receptor coactivator 3 (Q9Y6Q9 whole entry, further chain): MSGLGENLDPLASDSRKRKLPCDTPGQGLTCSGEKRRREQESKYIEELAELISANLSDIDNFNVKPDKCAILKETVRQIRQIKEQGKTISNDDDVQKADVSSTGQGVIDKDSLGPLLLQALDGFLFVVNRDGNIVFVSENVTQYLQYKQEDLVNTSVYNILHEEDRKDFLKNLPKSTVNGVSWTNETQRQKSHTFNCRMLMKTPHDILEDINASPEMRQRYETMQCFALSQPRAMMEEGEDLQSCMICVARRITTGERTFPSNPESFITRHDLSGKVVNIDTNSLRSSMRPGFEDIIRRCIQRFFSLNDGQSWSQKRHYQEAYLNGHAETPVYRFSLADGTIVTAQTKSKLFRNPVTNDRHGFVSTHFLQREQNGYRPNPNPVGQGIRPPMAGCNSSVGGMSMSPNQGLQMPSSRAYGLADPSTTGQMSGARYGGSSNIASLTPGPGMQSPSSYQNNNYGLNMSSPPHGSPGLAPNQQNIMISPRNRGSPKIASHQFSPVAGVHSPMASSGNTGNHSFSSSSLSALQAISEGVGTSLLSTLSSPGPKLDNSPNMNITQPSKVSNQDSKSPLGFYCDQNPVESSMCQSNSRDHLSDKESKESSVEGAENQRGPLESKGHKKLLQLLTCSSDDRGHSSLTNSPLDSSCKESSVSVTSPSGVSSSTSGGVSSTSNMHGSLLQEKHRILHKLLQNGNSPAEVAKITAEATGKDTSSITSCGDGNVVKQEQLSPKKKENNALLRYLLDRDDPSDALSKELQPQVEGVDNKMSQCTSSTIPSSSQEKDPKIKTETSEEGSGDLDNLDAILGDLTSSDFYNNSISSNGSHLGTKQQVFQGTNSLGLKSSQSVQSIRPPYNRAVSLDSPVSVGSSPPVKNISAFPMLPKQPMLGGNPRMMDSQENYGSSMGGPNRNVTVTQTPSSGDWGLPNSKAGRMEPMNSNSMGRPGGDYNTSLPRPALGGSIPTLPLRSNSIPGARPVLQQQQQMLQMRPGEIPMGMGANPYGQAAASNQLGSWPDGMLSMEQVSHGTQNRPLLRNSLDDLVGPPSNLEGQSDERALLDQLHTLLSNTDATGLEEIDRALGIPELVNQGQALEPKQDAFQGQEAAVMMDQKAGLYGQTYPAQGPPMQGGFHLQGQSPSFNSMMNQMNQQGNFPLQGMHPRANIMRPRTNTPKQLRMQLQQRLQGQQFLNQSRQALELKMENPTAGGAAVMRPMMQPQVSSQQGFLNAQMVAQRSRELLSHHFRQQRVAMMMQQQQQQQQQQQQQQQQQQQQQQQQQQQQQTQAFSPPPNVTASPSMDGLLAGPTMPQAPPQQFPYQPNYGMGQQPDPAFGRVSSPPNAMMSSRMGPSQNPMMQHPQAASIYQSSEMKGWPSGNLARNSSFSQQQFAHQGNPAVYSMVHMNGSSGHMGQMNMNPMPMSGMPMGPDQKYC

For assay [3], the target named is Peroxisome proliferator-activated receptor gamma/Nuclear receptor coactivator 1 (Homo sapiens, UniProt P37231). The experiment in a line: TR-FRET dose response biochemical High Throughput Screening assay for agonists of the steroid receptor coactivator 1 (SRC-1) recruitment by the peroxisome proliferator-activated receptor gamma (PPAR gamma): non-selective agonists. [Related pubchem assays (depositor defined):AID1300, AID1808, AID504735, AID631]. In kind it is protein assay.

For assay [4], the target named is T1, Short transient receptor potential channel 4 (Mus musculus, UniProt Q9QUQ5).
T1 sequence (Q9QUQ5 whole entry): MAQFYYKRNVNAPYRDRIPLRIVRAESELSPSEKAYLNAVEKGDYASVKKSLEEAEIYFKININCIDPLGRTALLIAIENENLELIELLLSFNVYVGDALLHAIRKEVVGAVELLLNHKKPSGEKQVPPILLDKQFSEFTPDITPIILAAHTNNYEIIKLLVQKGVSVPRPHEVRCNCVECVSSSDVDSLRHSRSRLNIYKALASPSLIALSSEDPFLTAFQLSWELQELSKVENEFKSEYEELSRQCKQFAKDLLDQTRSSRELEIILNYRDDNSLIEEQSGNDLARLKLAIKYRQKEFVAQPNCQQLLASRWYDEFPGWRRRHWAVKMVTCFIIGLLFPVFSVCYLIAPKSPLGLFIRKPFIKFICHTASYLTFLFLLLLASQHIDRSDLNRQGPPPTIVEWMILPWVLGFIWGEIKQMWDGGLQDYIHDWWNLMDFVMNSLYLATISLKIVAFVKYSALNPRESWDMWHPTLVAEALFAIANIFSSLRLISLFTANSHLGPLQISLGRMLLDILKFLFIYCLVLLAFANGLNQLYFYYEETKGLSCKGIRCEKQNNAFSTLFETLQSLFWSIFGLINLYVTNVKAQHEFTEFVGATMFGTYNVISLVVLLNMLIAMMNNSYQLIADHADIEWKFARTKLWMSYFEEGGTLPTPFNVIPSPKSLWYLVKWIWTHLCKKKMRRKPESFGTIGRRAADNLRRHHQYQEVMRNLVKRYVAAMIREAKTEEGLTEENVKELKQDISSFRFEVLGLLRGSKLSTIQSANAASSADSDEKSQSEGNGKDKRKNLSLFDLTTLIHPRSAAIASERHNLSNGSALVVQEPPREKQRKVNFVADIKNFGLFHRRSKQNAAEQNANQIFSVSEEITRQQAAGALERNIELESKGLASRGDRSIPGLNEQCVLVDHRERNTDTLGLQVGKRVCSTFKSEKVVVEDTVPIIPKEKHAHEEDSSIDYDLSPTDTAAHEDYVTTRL
The experiment in a line: calcium entry via TRPC4 opening agents – cell-based, HEK293 TRPC4/mu-opioid, Fluo-4 calcium, dose response (AID 434937). In kind it is functional.

Assay [5] deals with T2, RNA-binding protein pos-1 (Caenorhabditis elegans, UniProt G5EF15).
T2 sequence (G5EF15 whole entry): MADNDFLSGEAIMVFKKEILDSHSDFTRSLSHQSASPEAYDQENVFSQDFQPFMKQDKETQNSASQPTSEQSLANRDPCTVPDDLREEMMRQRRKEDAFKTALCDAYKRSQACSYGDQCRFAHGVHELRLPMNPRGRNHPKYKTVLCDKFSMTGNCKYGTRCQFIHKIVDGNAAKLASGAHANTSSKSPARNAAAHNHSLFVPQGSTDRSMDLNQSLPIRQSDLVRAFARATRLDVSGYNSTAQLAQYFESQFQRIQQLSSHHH
The experiment in a line: disruptors of C. elegans POS-1 RNA interaction – biochemical, fluorescence polarization, dose response (AID 1964).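 Also: purified POS-1 fused to maltose binding protein made in E. coli; potency of compounds blocking POS-1 binding to fluorescent RNA.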 On the technique in general: Polarisation of emitted light reports the rotation of a fluorescent probe.

Assay [6] has as its target T3, Zinc finger protein mex-5 (Caenorhabditis elegans, UniProt Q9XUB2).
T3 sequence (Q9XUB2 whole entry): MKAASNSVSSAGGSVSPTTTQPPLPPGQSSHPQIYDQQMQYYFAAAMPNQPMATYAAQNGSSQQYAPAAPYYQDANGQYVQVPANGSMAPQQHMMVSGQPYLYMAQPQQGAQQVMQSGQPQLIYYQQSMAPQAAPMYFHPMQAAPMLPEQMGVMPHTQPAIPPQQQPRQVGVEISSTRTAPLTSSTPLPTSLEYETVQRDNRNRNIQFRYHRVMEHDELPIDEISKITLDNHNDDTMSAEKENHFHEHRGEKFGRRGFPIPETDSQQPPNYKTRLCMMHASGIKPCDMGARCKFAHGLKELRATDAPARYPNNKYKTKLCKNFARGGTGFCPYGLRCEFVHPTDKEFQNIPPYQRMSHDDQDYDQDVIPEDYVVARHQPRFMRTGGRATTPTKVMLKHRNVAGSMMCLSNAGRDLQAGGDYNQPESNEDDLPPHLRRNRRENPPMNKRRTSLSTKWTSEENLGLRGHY
In words: potency of MEX-5 RNA-binding blockers – biochemical, C. elegans, fluorescence polarization, dose response (AID 1960).

The target of assay [7] is Beta-2 adrenergic receptor (Homo sapiens, UniProt P07550). The experiment in a line: ADRB2 activation measured by internalization – cell-based, FAP fluorogen, flow cytometry, cherry pick 1, dose response (AID 588763). In kind it is functional. In general terms: Flow cytometry measures light scatter and fluorescence of single cells or particles in a stream.
Chain of Beta-2 adrenergic receptor (P07550 whole entry): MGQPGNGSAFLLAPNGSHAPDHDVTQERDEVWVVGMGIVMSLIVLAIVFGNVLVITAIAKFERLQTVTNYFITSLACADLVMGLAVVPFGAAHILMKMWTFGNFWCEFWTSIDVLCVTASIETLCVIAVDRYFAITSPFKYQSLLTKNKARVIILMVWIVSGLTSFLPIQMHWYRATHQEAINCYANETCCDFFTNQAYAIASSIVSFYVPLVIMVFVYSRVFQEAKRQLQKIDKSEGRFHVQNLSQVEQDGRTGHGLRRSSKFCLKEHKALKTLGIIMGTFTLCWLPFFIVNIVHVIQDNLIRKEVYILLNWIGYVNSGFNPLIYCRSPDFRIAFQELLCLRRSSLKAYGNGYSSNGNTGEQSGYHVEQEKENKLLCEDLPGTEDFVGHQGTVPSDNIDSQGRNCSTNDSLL
Assay [8] addresses DNA dC->dU-editing enzyme APOBEC-3G (Homo sapiens, UniProt Q9HC16). In kind it is functional.
For assay [9], the target named is DNA dC->dU-editing enzyme APOBEC-3A (Homo sapiens, UniProt P31941). The experiment in a line: Dose Response confirmation of small molecule APOBEC3A DNA Deaminase Inhibitors via a fluorescence-based single-stranded DNA deaminase assay. [Related pubchem assays (depositor defined):AID493011, AID493024]. It counts as functional.
Chain of DNA dC->dU-editing enzyme APOBEC-3A (P31941 whole entry, the tested form may be a part): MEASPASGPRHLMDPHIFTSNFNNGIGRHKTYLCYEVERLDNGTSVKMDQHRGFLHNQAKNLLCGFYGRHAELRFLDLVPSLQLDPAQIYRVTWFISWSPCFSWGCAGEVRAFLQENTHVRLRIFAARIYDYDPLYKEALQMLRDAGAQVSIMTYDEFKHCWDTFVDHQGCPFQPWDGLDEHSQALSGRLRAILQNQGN
For assay [10], the target named is T4, Carboxy-terminal domain RNA polymerase II polypeptide A small phosphatase 1 (Homo sapiens, UniProt Q9GZU7).
T4 sequence (Q9GZU7 whole entry): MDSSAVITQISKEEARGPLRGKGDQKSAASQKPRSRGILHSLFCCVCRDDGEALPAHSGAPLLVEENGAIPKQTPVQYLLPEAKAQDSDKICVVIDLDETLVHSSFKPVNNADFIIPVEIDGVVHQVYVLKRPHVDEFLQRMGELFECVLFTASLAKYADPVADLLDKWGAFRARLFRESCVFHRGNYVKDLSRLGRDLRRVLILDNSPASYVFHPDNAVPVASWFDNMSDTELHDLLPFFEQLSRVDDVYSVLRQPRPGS
In words: CTDSP1 inhibitors, concentration-response, biochemical, absorbance readout, ultra-high-throughput screen actives (AID 540297). In kind it is functional.

For assay [11], the target named is T5, Heat shock factor protein 1 (Mus musculus, UniProt P38532).
T5 sequence (P38532 whole entry): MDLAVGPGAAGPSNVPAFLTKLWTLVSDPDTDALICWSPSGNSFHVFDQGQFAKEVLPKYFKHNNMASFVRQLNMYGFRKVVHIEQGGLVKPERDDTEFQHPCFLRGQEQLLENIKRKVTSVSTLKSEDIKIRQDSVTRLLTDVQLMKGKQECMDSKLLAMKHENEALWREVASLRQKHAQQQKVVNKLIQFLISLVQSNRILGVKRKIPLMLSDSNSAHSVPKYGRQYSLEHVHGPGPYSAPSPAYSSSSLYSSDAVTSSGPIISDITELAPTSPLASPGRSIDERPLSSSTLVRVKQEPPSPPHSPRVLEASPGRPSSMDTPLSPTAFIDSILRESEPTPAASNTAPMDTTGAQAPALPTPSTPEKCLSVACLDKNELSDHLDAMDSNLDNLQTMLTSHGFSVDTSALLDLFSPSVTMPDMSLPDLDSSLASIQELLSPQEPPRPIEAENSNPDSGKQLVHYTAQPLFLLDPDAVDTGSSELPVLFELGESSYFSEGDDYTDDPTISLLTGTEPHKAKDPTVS
The experiment in a line: decrease of HSF1-responsive luciferase luminescence – cell-based, NIH3T3, dose retest, confirmation (AID 2382).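 Also: NIH3T3 fibroblasts with HSF1-driven luciferase reporter stressed by proteasome inhibitor MG132; luminescence from HSF1-driven luciferase expression after 8 hours of MG132 stress.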 It counts as functional.

Assay [12] addresses T6, Leucine aminopeptidase (Plasmodium falciparum 3D7, UniProt Q8IL11).
T6 sequence (Q8IL11 whole entry): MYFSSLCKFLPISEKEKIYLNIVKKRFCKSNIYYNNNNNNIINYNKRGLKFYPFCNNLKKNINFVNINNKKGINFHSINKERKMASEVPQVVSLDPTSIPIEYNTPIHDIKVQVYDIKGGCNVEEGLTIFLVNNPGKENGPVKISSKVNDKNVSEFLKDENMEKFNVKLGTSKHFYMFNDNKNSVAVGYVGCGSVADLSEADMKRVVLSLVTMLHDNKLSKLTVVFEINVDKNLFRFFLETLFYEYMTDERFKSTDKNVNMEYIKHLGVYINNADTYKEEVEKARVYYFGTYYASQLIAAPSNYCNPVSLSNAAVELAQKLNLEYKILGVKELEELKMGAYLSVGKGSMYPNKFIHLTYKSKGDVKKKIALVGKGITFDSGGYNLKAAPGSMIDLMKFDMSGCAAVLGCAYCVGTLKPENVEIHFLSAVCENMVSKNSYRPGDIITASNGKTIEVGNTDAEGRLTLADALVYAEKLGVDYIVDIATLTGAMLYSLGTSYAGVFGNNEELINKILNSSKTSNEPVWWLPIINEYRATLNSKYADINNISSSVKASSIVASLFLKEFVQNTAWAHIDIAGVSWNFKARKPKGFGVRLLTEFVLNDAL
The experiment in a line: P. falciparum M17LAP inhibitors, primary screen, biochemical, fluorogenic H-Leu-NHMec substrate, 1536-well (AID 1619). It counts as functional.

Chain of DNA dC->dU-editing enzyme APOBEC-3G (Q9HC16 whole entry): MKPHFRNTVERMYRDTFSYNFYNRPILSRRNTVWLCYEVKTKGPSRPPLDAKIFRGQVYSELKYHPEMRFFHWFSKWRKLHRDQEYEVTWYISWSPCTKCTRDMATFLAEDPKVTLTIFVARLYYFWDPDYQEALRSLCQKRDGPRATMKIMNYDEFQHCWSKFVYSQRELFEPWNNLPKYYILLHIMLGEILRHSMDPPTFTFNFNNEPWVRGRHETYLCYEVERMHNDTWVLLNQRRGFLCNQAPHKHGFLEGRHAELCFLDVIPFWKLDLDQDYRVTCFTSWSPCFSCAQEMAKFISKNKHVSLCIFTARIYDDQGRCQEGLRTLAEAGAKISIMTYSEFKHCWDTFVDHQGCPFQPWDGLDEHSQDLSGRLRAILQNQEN

In general, EC50 refers to the concentration that produces a half-maximal response. Turning to `C=CCn1c(=S)[nH]c2scc(-c3cccs3)c2c1=O`, the EC50 in assay [1] was 5.27 µM (active); in assay [2], > 79.4 µM (not active); in assay [3] it was 4.03 µM (active).

Take `Cc1sc2ncnc(NCC(c3ccccc3)N(C)C)c2c1C` (stereo not given): the EC50 in [4] is 0.237 µM (active).

Take `COc1ccc(C2C(C(=O)c3ccco3)=C(O)C(=O)N2c2nnc(C)s2)cc1` (stereo not given): the EC50 in assay [1] was 18.7 µM (not active); in assay [5] it was 109 µM (active); in assay [2], > 79.4 µM (not active); in assay [3], 19.8 µM (inactive); in assay [6], 216 µM (active).

On to `COc1ccc(C2/C=C\CN(Cc3ccc(N(C)C)cc3)CC(=O)N2Cc2ccc(F)cc2)cc1` (stereo not given), for which the EC50 in assay [7] was 4.34 µM (active).

For orientation: IC50 means the concentration that gives 50% inhibition. For the compound `O=C(CSc1nc2sccc2c(=O)[nH]1)N1CCN(c2ccccc2)CC1`, the values for the IC50 in assay [8], in [9] and in assay [10] were 9.27 µM (active), 11.5 µM (active) and 10.7 µM (active), respectively.

Take `Cc1nc(NCC(c2ccccc2)N(C)C)c2c(C)c(C)sc2n1` (stereo not given): in assay [4], the EC50 was 0.335 µM (active).

For `CCn1c(=O)cc(SCC(=O)Nc2cccc(C)n2)c2ccccc21`, the EC50 in [1] is > 79.4 µM (not active); in [2], > 79.4 µM (not active); in [3], > 79.4 µM (inactive).

With `COC(=O)c1c(N=C(S)Nc2ccc(CC(=O)O)cc2)sc(C)c1C`, the results for the EC50 in [1], in assay [2] and in assay [3] were 9.39 µM (active), > 79.4 µM (not active) and 13.3 µM (inactive), respectively.

On to `CCCCOc1cccc(C(=O)Nc2ccc(NC(=O)c3ccco3)cc2)c1`, for which the EC50 in assay [7] is 0.222 µM (active).

For `Cc1cccc(C(=O)NC(=S)NNC(=O)c2ccccc2Cl)c1`, the EC50 in [4] is 1.68 µM (active); in assay [11], > 195 µM (not active). In assay [12], the IC50 is 58 µM (active).

Take `CCCCC(=O)Nc1ccc(C(=O)N2CCCC(C(=O)OCC)C2)cc1` (stereo not given): the EC50 in assay [7] is 5.72 µM (active).
